# According to paper PMC7044277 (Nature Communications, 2020):
# Values joined by “and” are separate entries in the source; they are usually repeats but may differ in a detail not shown here. Equal entries are not always repeated.
# Experiments:
# [1] = tested on: serotonin receptor of Fig_S10g (subtype not named); experiment: β-arrestin2 recruitment (Tango), agonist activity, panel Fig_S10g (serotonin as reference; receptor not given); type: cell-based, human
# 5HT1A = target: T1, 5HT1A (Homo sapiens, UniProt P08908); experiment: β-arrestin2 recruitment (Tango); type: cell-based; details: Fig_S10f, single replicates
# T1 construct: expressed in transfected cells; host or cells: HTLA cells expressing TEV-fused β-arrestin2
# T1 sequence (P08908 1-422): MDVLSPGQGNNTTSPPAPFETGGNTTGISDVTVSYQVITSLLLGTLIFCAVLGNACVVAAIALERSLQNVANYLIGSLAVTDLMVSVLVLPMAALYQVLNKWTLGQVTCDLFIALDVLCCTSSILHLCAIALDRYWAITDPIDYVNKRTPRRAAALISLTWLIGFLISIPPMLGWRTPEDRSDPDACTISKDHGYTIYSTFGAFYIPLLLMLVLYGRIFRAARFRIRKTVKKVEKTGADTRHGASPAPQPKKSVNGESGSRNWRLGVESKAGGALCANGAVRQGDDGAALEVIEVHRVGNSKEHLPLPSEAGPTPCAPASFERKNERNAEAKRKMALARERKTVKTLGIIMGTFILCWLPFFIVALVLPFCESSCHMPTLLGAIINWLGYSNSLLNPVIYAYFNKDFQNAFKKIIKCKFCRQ
# DRD2 S1945.43G = target: T2, DRD2 S1945.43G (Homo sapiens, UniProt P14416, S194G); experiment: Gαi/o-mediated cAMP inhibition (GloSensor), mutant; type: cell-based; details: DRD2 Ser5.43Gly; G-protein assay
# T2 construct: expressed in transfected cells; host or cells: HEK293T (ATCC CRL-11268)
# DRD3 = DRD3 (Homo sapiens, UniProt P35462); experiment: β-arrestin2 recruitment (Tango); type: cell-based
# [2] = tested on: serotonin receptor (subtype not given; reference agonist serotonin); experiment: β-arrestin2 recruitment (Tango), agonist activity, source data Fig_S10m; type: cell-based, human; details: drug alone
# DRD5 = DRD5 (Homo sapiens, UniProt P21918); experiment: β-arrestin2 recruitment (Tango); type: cell-based; details: Fig_S10e, single replicates
# 5HT1D = 5HT1D (Homo sapiens, UniProt P28221); experiment: β-arrestin2 recruitment (Tango); type: cell-based; details: agonist activity only at high concentrations
# 5HT1D, sequence (P28221 whole entry): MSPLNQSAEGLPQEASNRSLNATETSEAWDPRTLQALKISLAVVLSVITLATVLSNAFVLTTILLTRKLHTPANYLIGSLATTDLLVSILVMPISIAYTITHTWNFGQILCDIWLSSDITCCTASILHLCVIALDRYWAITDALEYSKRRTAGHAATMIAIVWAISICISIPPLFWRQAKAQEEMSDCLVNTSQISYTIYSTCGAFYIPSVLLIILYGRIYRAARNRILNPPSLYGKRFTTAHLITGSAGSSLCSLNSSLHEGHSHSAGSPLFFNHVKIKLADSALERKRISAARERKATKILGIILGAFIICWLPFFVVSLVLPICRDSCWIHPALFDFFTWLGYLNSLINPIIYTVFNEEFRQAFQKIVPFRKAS
# DRD3, sequence (P35462 whole entry): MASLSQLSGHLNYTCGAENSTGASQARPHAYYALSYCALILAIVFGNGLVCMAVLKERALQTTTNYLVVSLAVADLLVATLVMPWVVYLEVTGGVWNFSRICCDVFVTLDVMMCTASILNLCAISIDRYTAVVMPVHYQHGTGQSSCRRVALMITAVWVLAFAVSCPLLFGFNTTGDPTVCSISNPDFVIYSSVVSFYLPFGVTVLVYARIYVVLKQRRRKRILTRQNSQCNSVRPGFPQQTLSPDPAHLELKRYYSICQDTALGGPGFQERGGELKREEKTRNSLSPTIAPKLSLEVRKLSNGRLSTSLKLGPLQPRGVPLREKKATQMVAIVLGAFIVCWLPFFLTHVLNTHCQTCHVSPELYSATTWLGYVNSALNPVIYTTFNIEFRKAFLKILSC
# DRD5, sequence (P21918 whole entry): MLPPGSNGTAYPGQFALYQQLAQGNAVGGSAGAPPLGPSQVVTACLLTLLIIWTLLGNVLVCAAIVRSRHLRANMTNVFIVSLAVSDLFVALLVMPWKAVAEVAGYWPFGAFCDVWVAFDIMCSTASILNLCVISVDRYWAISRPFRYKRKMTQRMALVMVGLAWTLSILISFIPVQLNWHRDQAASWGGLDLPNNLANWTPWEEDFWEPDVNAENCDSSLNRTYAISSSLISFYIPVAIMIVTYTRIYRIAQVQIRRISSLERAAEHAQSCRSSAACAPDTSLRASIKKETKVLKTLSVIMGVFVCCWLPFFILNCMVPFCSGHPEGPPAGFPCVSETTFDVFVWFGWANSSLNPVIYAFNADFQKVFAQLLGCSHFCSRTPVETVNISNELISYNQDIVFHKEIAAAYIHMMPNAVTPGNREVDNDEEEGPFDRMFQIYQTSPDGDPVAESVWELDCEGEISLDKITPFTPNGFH
# T2 sequence (P14416 whole entry S194G): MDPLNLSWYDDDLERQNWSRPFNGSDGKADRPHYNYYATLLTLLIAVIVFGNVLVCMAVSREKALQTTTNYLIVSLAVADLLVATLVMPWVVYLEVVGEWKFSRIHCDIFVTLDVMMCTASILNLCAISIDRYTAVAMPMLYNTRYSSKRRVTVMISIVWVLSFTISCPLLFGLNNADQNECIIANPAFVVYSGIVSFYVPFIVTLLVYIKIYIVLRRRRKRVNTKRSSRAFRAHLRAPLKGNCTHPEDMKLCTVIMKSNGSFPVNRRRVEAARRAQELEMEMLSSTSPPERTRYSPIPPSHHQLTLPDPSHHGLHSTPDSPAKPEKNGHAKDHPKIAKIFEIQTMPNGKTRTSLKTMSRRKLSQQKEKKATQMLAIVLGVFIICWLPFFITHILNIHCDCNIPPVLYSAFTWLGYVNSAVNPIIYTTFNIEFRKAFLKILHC
smiles,measurement,setting,value
CCOc1cccc2cc([C@@H](C)NCC3(O)CCCCC3)oc12 [O4RE6],"response, single replicate of concentration-response curve","[1]; Log[Drug] -6.52, drug alone",-0.2238
same,"response, single replicate of concentration-response curve","[1]; Log[Drug] -7, drug alone",-0.9957 and 0.7395 and -0.3731 and -4.075 and -6.459 and 6.257 and -6.235 and -15.3353 and -2.563
same,"response, single replicate of concentration-response curve","[1]; Log[Drug] -7.52, drug alone",3.537 and -8.588 and -8.236 and 1.017 and -6.537 and 8.346 and -24.6047 and -9.735 and -3.961
same,"response, single replicate of concentration-response curve","[1]; Log[Drug] -8, drug alone",-8.838 and 5.045 and -3.835 and -6.3435 and -10.7922 and -4.261 and 1.209 and 10.8594 and -1.1998
same,"response, single replicate of concentration-response curve","[1]; Log[Drug] -8.52, drug alone",7.317 and 3.662 and -0.2578 and 4.902 and -3.436 and -0.8135 and 0.3262 and -17.2923 and -3.276
same,"response, single replicate of concentration-response curve","[1]; Log[Drug] -9, drug alone",-7.333 and -6.074 and -4.492 and 7.736 and 5.892 and -7.036 and 12.8804 and 16.0838 and -14.0161
same,"response, single replicate of concentration-response curve","[1]; Log[Drug] -9.52, drug alone",5.814 and -6.894 and -1.133 and -0.4282 and -3.469 and 10.7257 and -14.7529 and -4.735 and 6.229
same,"response, single replicate of concentration-response curve","[1]; Log[Drug] -10, drug alone",4.7653 and -6.922 and -6.74 and 0.01564 and -8.293 and -7.394 and -5.827 and 22.4235 and -13.92
same,"response, single replicate of concentration-response curve","[1]; Log[Drug] -10.52, drug alone",-4.711 and -9.672 and -0.4245 and 5.467 and 12.0515 and -5.19 and -22.007 and -11.0399 and -21.0839
same,"response, single replicate of concentration-response curve","[1]; Log[Drug] -11, drug alone",-6.102 and 1.947 and -4.193 and 7.519 and 7.073 and 6.156 and 9.863 and -6.485 and 14.517
same,"response, single replicate of concentration-response curve","[1]; Log[Drug] -11.52, drug alone",-1.632 and -2.513 and -9.3706 and 4.84 and 6.766 and 9.126 and -22.9448 and -13.1075 and -5.3496
same,"response, single replicate of concentration-response curve","[1]; Log[Drug] -12, drug alone",-2.553 and 8.39 and 5.434 and 10.274 and 10.0549 and 1.613 and 2.42 and 0.1252 and -2.5423
same,"β-arrestin2 recruitment response, agonist mode (normalized)",5HT1A; Log[Drug] -9.52,-0.3383 and -0.3342 and -0.9983 and -0.221 and -0.03249 and 2.194 and -0.4129 and -0.6658 and 0.08323
same,"β-arrestin2 recruitment response, agonist mode (normalized)",5HT1A; Log[Drug] -10,-0.1671 and -0.3383 and -0.5054 and -0.1386 and -0.3173 and 2.583 and 0.605 and 2.666 and 1.376
same,"β-arrestin2 recruitment response, agonist mode (normalized)",5HT1A; Log[Drug] -10.52,0 and 0.5013 and 0.1546 and 0.5578 and -0.1419 and 1.096 and 1.898 and -0.4417 and 0.06082
same,"β-arrestin2 recruitment response, agonist mode (normalized)",5HT1A; Log[Drug] -11,-0.5138 and -0.6767 and 1.165 and 0.7257 and 0.3249 and 3.762 and 0.9795 and 5.224 and 0.4673
same,"β-arrestin2 recruitment response, agonist mode (normalized)",5HT1A; Log[Drug] -11.52,1.8254 and -0.1796 and 0.1546 and 0.208 and -0.007582 and -0.4495 and -0.8035 and 0.7362 and -0.4065
same,"β-arrestin2 recruitment response, agonist mode (normalized)",5HT1A; Log[Drug] -12,-0.1713 and 0.3383 and -0.1671 and 0.2155 and 0.391 and -0.6055 and 0.7554 and -0.4001 and 0.1248
same,agonism after serine to glycine substitution,DRD2 S1945.43G,impaired
same,β-arrestin2 recruitment agonist activity,"DRD3; DRD3, Tango",partial agonist
same,EC50,"DRD3; DRD3, Tango, read-out: EC50 ± SEM",808 ± 22 nM
same,"β-arrestin2 recruitment response at DRD3 (source data, replicate values)",DRD3; Log[Drug] -5,4.576 and 3.7 and 3.62 and 3.736 and 5.471 and 3.308 and 2.328
same,"β-arrestin2 recruitment response at DRD3 (source data, replicate values)",DRD3; Log[Drug] -5.52,3.058 and 2.935 and 3.394 and 3.834 and 3.658 and 1.004 and 1.077
same,"β-arrestin2 recruitment response at DRD3 (source data, replicate values)",DRD3; Log[Drug] -6,2.938 and 3.023 and 2.856 and 3.025 and 3.1562 and 0.3638 and 0.509
same,"β-arrestin2 recruitment response at DRD3 (source data, replicate values)",DRD3; Log[Drug] -6.52,3.396 and 2.937 and 2.899 and 3.295 and 4.17 and 0.7903 and 0.1505
same,"β-arrestin2 recruitment response at DRD3 (source data, replicate values)",DRD3; Log[Drug] -7,2.933 and 3.147 and 2.775 and 2.952 and 4.646 and 0.5125 and 2.883
same,"β-arrestin2 recruitment response at DRD3 (source data, replicate values)",DRD3; Log[Drug] -7.52,3.0214 and 3.313 and 2.803 and 3.9395 and 2.8785 and -0.1416 and 0.9462
same,"β-arrestin2 recruitment response at DRD3 (source data, replicate values)",DRD3; Log[Drug] -8,3.394 and 3.834 and 3.658 and 3.117 and 3.387 and 1.887 and -0.07348
same,"β-arrestin2 recruitment response at DRD3 (source data, replicate values)",DRD3; Log[Drug] -8.52,2.856 and 3.025 and 3.1562 and 3.299 and 3.446 and 1.2903 and 3.595
same,"β-arrestin2 recruitment response at DRD3 (source data, replicate values)",DRD3; Log[Drug] -9,2.899 and 3.295 and 4.17 and 2.956 and 3.124 and 0.2993 and 1.159
same,"β-arrestin2 recruitment response at DRD3 (source data, replicate values)",DRD3; Log[Drug] -9.52,2.775 and 2.952 and 4.646 and 3.025 and 2.94 and 0.3512 and -0.2025
same,"β-arrestin2 recruitment response at DRD3 (source data, replicate values)",DRD3; Log[Drug] -10,2.803 and 3.9395 and 2.8785 and 2.928 and 3.403 and 1.077 and 2.238
same,"β-arrestin2 recruitment response at DRD3 (source data, replicate values)",DRD3; Log[Drug] -10.52,5.884 and 3.155 and 4.6156 and 3.056 and 2.943 and 1.1541 and 0.8548
same,"β-arrestin2 recruitment response at DRD3 (source data, replicate values)",DRD3; Log[Drug] -11,3.18 and 2.961 and 3.126 and 2.927 and 2.942 and 0.5878 and 2.511
same,"β-arrestin2 recruitment response at DRD3 (source data, replicate values)",DRD3; Log[Drug] -11.52,2.6928 and 2.862 and 2.962 and 3.132 and 3.725 and -0.276 and 0.7993
same,Emax,"DRD3; read-out: Emax relative to quinpirole response, DRD3, Tango",21.4%
same,"response, Fig_S10m, replicate values",[2]; Log[Drug] -10,2.7529 and -0.4377 and -1.97 and -0.5261 and 1.876 and -0.04315 and 3.796 and 2.966 and 1.035
same,"response, Fig_S10m, replicate values",[2]; Log[Drug] -10.52,0.7688 and 0.004826 and -2.114 and 0.954 and 0.8686 and -0.8567 and -0.09082 and -0.6687 and 2.414
same,"response, Fig_S10m, replicate values",[2]; Log[Drug] -11,1.778 and -1.268 and 4.058 and 1.198 and 1.567 and 2.185 and -0.6818 and -1.429 and -2.744
same,"response, Fig_S10m, replicate values",[2]; Log[Drug] -11.52,-1.448 and 1.084 and -0.9329 and 1.724 and -0.9384 and 3.221 and 2.656 and 0.1211 and -2.648
same,"response, Fig_S10m, replicate values",[2]; Log[Drug] -12,3.008 and 0.9208 and 2.0444 and 1.398 and -0.9127 and 1.032 and 3.604 and 5.24 and 4.003
same,"β-arrestin2 recruitment response, agonist mode (normalized)",DRD5; Log[Drug] -6.52,3.307
same,"β-arrestin2 recruitment response, agonist mode (normalized)",DRD5; Log[Drug] -7,3.556 and 3.7037 and 0.3329 and 4.539 and 1.619 and 0.7476 and 0.7305 and 1.517 and 0.06412
same,"β-arrestin2 recruitment response, agonist mode (normalized)",DRD5; Log[Drug] -7.52,3.831 and -0.7608 and 1.183 and 2.699 and 1.3394 and 0.2373 and -0.5855 and 0.1756 and 0.6817
same,"β-arrestin2 recruitment response, agonist mode (normalized)",DRD5; Log[Drug] -8,-0.354 and 4.126 and 1.796 and 1.252 and 1.785 and 1.286 and -0.552 and 0.7932 and 1.175
same,"β-arrestin2 recruitment response, agonist mode (normalized)",DRD5; Log[Drug] -8.52,4.945 and 4.734 and 2.002 and 0.8283 and 1.858 and 0.3616 and -0.1241 and 0.7932 and 0.1701
same,"β-arrestin2 recruitment response, agonist mode (normalized)",DRD5; Log[Drug] -9,-0.5336 and 1.162 and 2.8425 and 2.532 and 0.2334 and 1.094 and -1.004 and 0.5702 and 1.069
same,"β-arrestin2 recruitment response, agonist mode (normalized)",DRD5; Log[Drug] -9.52,1.189 and -0.1004 and 3.714 and 0.519 and 0.6511 and 2.841 and 3.8684 and 0.6677 and 1.209
same,"β-arrestin2 recruitment response, agonist mode (normalized)",DRD5; Log[Drug] -10,1.189 and -0.7027 and -2.2032 and 1.378 and 0.875 and 0.4502 and -0.1213 and -0.3875 and 2.24
same,"β-arrestin2 recruitment response, agonist mode (normalized)",DRD5; Log[Drug] -10.52,0.7608 and -0.5125 and 1.416 and 1.597 and 1.308 and 1.974 and 3.531 and 1.161 and 0.5451
same,"β-arrestin2 recruitment response, agonist mode (normalized)",DRD5; Log[Drug] -11,-0.3117 and 1.606 and -1.358 and 0.3916 and 1.977 and 2.8 and -0.009758 and 3.703 and 3.711
same,"β-arrestin2 recruitment response, agonist mode (normalized)",DRD5; Log[Drug] -11.52,-1.77 and 3.926 and 0.7503 and 1.5356 and 0.746 and 0.6788 and -0.4001 and 8.516 and 5.095
same,"β-arrestin2 recruitment response, agonist mode (normalized)",DRD5; Log[Drug] -12,-0.9088 and 2.256 and -1.342 and 2.237 and 0.341 and 1.2057 and -1.023 and 0.1729 and 0.8517
same,concentration at which the receptor is activated,5HT1D,over 1 μM
